Assay results reported in US11103511B2, “Substituted indolo[2,1-b]quinazolines as inhibitors of tryptophan dioxygenase and indoleamine 2,3-dioxygenase 1” (FUDAN UNIVERSITY, priority 2017, dated 2021).

How the values were obtained:
IDO2 [1] = biological target: T1, IDO2 (Homo sapiens, UniProt Q6ZQW0); assay: Half effective inhibitory concentration IC50 (enzyme level) of IDO2; format: biochemical; conditions: human IDO2, pH 7.5, read-out: IC50 enzymatic IDO2
T1 construct: made in house
T1 sequence (Q6ZQW0 1-407): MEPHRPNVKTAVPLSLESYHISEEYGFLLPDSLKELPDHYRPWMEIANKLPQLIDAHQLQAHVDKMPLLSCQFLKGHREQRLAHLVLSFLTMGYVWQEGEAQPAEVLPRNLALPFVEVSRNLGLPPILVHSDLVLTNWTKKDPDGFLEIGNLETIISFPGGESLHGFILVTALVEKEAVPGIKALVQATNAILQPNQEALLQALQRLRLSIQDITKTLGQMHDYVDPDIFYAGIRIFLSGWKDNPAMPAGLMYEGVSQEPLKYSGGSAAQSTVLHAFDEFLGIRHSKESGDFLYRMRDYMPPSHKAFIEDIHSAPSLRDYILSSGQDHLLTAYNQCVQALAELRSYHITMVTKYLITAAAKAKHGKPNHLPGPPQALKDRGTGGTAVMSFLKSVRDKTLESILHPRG
Method: After the mixed solution was in water bath at 37° C. for 5 min, IDO2 was added to mixed solution and reacted at 37° C. for 30 min. After the enzymatic reaction was completed, 200 μL of 30% (w/v) trichloroacetic acid was added to terminate the reaction. Then the reaction mixture was heated in a 65° C. water bath for 15 min to make the reaction product transform from N-formyl-kynurenine to kynurenine, and centrifuged at […] for 10 min. 100 μL of supernatant was draw and mixed with equal volume of 2‰ (w/v) p-dimethylaminobenzaldehyde in acetic acid completely.

hTDO [2] = biological target: T2, hTDO (Homo sapiens, UniProt P48775); assay: Half effective inhibitory concentration IC50 (enzyme level) of TDO; format: biochemical; conditions: pH 7.0, NI means of no inhibitory activity, read-out: IC50 enzymatic TDO
T2 construct: made in house
T2 sequence (P48775 whole entry): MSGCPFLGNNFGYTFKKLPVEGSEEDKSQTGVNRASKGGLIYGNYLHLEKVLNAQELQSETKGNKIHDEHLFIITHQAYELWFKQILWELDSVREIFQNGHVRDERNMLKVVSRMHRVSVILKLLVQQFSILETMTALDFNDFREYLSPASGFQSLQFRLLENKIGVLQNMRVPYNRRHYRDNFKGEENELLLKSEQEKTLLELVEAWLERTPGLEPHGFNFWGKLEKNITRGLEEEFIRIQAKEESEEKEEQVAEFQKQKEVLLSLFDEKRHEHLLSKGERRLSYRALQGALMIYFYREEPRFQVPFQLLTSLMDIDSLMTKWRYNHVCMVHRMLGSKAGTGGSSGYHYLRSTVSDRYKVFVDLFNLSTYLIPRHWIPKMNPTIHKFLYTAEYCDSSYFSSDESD
Method: The nucleotide sequences of IDO1, IDO2, and TDO have been disclosed. The active IDO1, IDO2, and TDO in the Examples are human IDO1, IDO2, and TDO, and can be prepared by conventional molecular cloning methods.
In a 500 μL of standard detection system, 50 mmol/L potassium phosphate buffer (pH 7.0), 200 μg/mL catalase, 40 mmol/L ascorbic acid, 20 μmol/L methylene blue, substrate L-tryptophan with suitable concentration and hTDO inhibitors to be tested were mixed. After the mixed solution was warmed in water bath at 37° C. for 5 min, hTDO was added to react at 37° C. for 30 min. After the enzymatic reaction was completed, […] (w/v) trichloroacetic acid was added to terminate the reaction. Then the reaction mixture was heated in a 65° C. water bath for 15 min to make the reaction product transform from N-formyl-kynurenine to kynurenine, and centrifuged at […] for 10 min. 100 μL of supernatant was draw and mixed with equal volume of 2‰ (w/v) p-dimethylaminobenzaldehyde in acetic acid completely. The kynurenine can reacted with the solution and turned the mixed solution to yellow, and the absorbance was measured at 492 nm by microplate reader. The inhibitory rate was plotted against the inhibitor concentration, and the IC50 value was calculated by modified Karber method, the experimental results were shown in Table 1.

IDO1 [3] = biological target: T3, IDO1 (Homo sapiens, UniProt P14902); assay: Cellular IC50 of IDO1; format: cell-based
T3 sequence (P14902 whole entry): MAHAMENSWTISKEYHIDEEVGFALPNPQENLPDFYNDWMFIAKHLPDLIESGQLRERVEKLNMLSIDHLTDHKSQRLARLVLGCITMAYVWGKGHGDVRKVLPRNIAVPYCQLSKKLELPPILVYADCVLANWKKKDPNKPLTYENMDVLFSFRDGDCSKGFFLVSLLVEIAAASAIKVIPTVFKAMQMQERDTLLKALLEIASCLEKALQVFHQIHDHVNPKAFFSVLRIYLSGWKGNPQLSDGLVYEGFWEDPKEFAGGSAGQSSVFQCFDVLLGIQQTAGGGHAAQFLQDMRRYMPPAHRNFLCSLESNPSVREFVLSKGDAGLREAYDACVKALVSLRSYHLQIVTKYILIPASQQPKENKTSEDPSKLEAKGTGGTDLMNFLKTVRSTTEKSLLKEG
From the text: (§1) The nucleotide sequences of IDO1, IDO2, and TDO have been disclosed.
(§2) The IC50 test of IDO1 can be performed with reference to existing methods in the art, such as the method described in Chinese Patent NO.

IDO2 [4] = biological target: T1, IDO2; assay: Half effective inhibitory concentration IC50 (cell) of IDO2, transfected U87 MG cells; format: cell-based; conditions: U87 MG cells transfected with pcDNA3.1(+)-IDO2, 24 h; read-out: IC50 Cellular IDO2
Method: The nucleotide sequences of IDO1, IDO2, and TDO have been disclosed. […] U87 MG cell line (ATCC No.: HTB-14) was cultured in DMEM high-sugar medium containing 10% fetal bovine serum in a 37° C., 5% CO2 incubator. The cells were blown evenly into 6-well plate, and transfected when the cells grew to 80%-90% fusion. […] The cells were cultured in 37° C., 5% CO2 incubator for 6 h, and the medium was changed into DMEM medium containing 10% serum after adherence. […] Test compounds (including compounds of the present invention, […] and D-1-MT) at different concentration gradients were added and the total volume of each well was supplemented to 200 μl with cell culture medium containing L-tryptophan (200 μM of final concentration, sterilized by filtration). After incubated for 24 h, 140 μL of supernatant was taken into another 96-well plate, 10 μL of 30% (w/v) trichloroacetic acid was added, heated at 65° C. for 15 min, and centrifuged at 13800×g for 5 minutes. […] The experimental grouping was pcDNA3.1 (+)-IDO2 transfected group (experimental group), pcDNA3.1 (+) transfected group (empty plasmid control group), and non-transfected group (blank control group). Each group had three repeated well. The inhibitory rate was plotted against the inhibitor concentration, and the IC50 value was calculated by modified Karber method.

hTDO [5] = biological target: T2, hTDO; assay: Half effective inhibitory concentration IC50 (cell) of TDO, transfected HEK293 cells; format: cell-based; conditions: HEK293 cells transfected with pcDNA3.1(+)-hTDO, 5 h; NI means of no inhibitory activity; read-out: IC50 Cellular TDO
Method: The nucleotide sequences of IDO1, IDO2, and TDO have been disclosed. The active IDO1, IDO2, and TDO in the Examples are human IDO1, IDO2, and TDO, and can be prepared by conventional molecular cloning methods. HEK293 cell line was cultured in DMEM high-sugar medium containing 10% fetal bovine serum in a 37° C., 5% CO2 incubator. The cells were blown evenly into 6-well plates, and transfected when the cells grew to 80%-90% fusion. The operation was carried out according to the instructions of Lipofectamine 2000 while improved slightly: the serum-containing medium was draw out and the cells were washed twice with PBS, and 1500 μL of serum-free medium was added to each well. […] The cells were cultured in 37° C., 5% CO2 incubator for 4-6 h, and then the medium was changed into DMEM medium containing 10% serum. […] Test compounds (including compounds of the present invention, […] and INCB023460) at different concentration gradients were added and the total volume of each well was supplemented to 200 μl with cell culture medium. After incubated for 5 h, 140 μL of supernatant was taken into another 96-well plate, 10 μL of 30% (w/v) trichloroacetic acid was added, heated at 65° C. for 15 min, and centrifuged at 13800×g for 5 minutes. 100 μL of supernatant was mixed with equal volume of 2‰ (w/v) […] acetic acid solution, the absorbance was measured at 492 nm by microplate reader after fully mixing. The experimental grouping was pcDNA3.1 (+)-hTDO transfected group (experimental group), pcDNA3.1 (+) transfected group (plasmid-empty control group), and non-transfected group (blank control group). Each group had three repeated well. The inhibitory rate was plotted against the inhibitor concentration, and the IC50 value was calculated by modified Karber method, the experimental results were shown in Table 1.

IDO2 [6] = biological target: T1, IDO2; assay: Determination of IDO2 inhibitor type and Ki value; format: biochemical; conditions: [S]/V~[i] map, L-tryptophan 20-40 mM
Method: as §1
After the mixed solution was in water bath at 37° C. for 5 min, 10 μL of IDO2 (about 1 μM) was added to mixed solution and reacted at 37° C. for 30 min. After the enzymatic reaction was completed, 200 μL of 30% (w/v) trichloroacetic acid was added to terminate the reaction. Then the reaction mixture was heated in 65° C. water bath for 15 min to make the reaction product transform from N-formyl-kynurenine to kynurenine, and centrifuged at […] for 10 min. 100 μL of supernatant was draw and mixed with equal volume of 2‰ (w/v) p-dimethylaminobenzaldehyde in acetic acid completely. […] The inhibitor type was determined by Dixon mapping method (1/v˜[i]); the Ki value of inhibitor was obtained by [S]/V˜[i] map.

IDO1 [7] = biological target: T3, IDO1; assay: IC50 (enzyme level) of IDO1; format: biochemical; conditions: read-out: IC50 enzymatic IDO1
From the text: as §1, §2

IDO1 [8] = biological target: T3, IDO1; assay: Ki value of IDO1; format: biochemical
From the text: as §1, §2

[9] = cellular, read-out: IC50 Cellular IDO1

| Structure (SMILES) | IC50 (IDO2 [1]) | IC50 (hTDO [2]) | IC50 (IDO1 [3]; [9]) | IC50 (IDO2 [4]) | IC50 (hTDO [5]) | Ki (IDO2 [6]) | IC50 (IDO1 [7]) | Ki (IDO1 [8]) | IC50 (IDO1 [3]) |
| --- | --- | --- | --- | --- | --- | --- | --- | --- | --- |
| CN1CCN(Cc2ccc3nc4n(c(=O)c3c2)-c2ccccc2C4=O)CC1 [1d] | 46.9 µM | 2.41 µM | 0.177 µM | 23.3 µM | 0.184 µM | 8.85 µM |  |  |  |
| Cc1ccc2nc3n(c(=O)c2c1)-c1ccc(Cn2cc(-c4ccccc4)nn2)cc1C3=O [3d, 8-(4-phenyl-1H-1,2,3-triazol-1-methylene) -2-methyltryptanthrin] | 134 µM | 88.7 µM | 0.547 µM | 68.4 µM | 1.44 µM |  | 82.6 µM | 98.1 µM |  |
| O=C1c2cc(F)ccc2-n2c1nc1ccc(CN3CCOCC3)cc1c2=O [1f] | 39.6 µM | 0.87 µM |  | 16.5 µM | 0.071 µM | 17.5 µM |  |  |  |
| O=C1c2cc(Cn3cc(-c4ccccc4)nn3)ccc2-n2c1nc1ccc(Cl)cc1c2=O [3f, 8-(4-phenyl-1H-1,2,3-triazol-1-methylene) -2-chlorotryptanthrin] | 125 µM | 50.1 µM | 0.245 µM | 65.1 µM | 0.713 µM |  | 42.2 µM |  |  |
| O=C1c2cc(Cn3cc(-c4ccccc4)nn3)ccc2-n2c1nc1ccc(F)cc1c2=O [3b] | 99.6 µM | 81.8 µM | 0.335 µM | 50.1 µM | 1.37 µM |  | 50 µM | 96.3 µM |  |
| O=C1c2cc(Cn3cc(-c4ccccc4)nn3)ccc2-n2c1nc1ccc(Br)cc1c2=O [3e, 8-(4-phenyl-1H-1,2,3-triazol-1-methylene) -2-bromotryptanthrin] | 102 µM | 44.6 µM | 0.201 µM | 51.2 µM | 0.715 µM |  | 41.1 µM |  |  |
| CC(C)(C)OC(=O)N1CCN(Cc2ccc3nc4n(c(=O)c3c2)-c2ccc(F)cc2C4=O)CC1 [1c] | 62.6 µM | 0.45 µM |  | 8.05 µM | 0.067 µM | 6.11 µM |  |  | 0.133 µM |
| CN1CCN(Cc2ccc3nc4n(c(=O)c3c2)-c2ccc(F)cc2C4=O)CC1 [1a] | 18.4 µM | 0.76 µM |  | 18.7 µM | 0.093 µM | 6.32 µM |  |  | 0.022 µM |
| O=C1c2cc(Cn3cc(-c4ccccc4)nn3)ccc2-n2c1nc1ccccc1c2=O [3a] | 98 µM | 46.6 µM | 0.278 µM | 48.1 µM | 0.688 µM |  | 45.2 µM | 103 µM |  |
| CN(C)Cc1ccc2nc3n(c(=O)c2c1)-c1ccc(F)cc1C3=O [1e] | 14 µM | 0.41 µM |  | 3.81 µM | 0.063 µM | 4.32 µM |  |  |  |
| O=C1c2cc(F)ccc2-n2c1nc1ccc(Cn3cc(-c4ccccc4)nn3)cc1c2=O [3c] | 83 µM | 40 µM | 0.185 µM | 41.7 µM | 0.197 µM |  | 39.1 µM | 63.3 µM |  |
| O=C1c2cc(F)ccc2-n2c1nc1ccc(CN3CCNCC3)cc1c2=O [1b] | 31.4 µM | 0.87 µM |  | 3.58 µM | 0.092 µM | 1.96 µM |  |  |  |
